Legend:
RARβ2 promoter = experiment: Methylation specific PCR for the RARβ gene; assay type: cell-based; conditions: 16 and 24 hrs
Description: (§1) FIG. 2: a) Methylation specific PCR for the RARβ gene after 16 and 24 hrs of treatment with the indicated compounds; b) Methylation specific PCR for the p16 gene after 24 hrs of the indicated treatments. Samples are representative of real duplicates; c) p16 expression levels in U937 cells after 24 hrs with the indicated treatments; d) DNMT enzymatic in vitro assay carried out with 1.5 and 50 μM of the indicated compounds;
Cells were resuspended into 150 μl of TE (Tris 10 mM—EDTA 1 mM). 1.5 mL of lysis buffer (10 mM Tris pH 8.0—0.1 mM EDTA pH 8.0—0.5% SDS—20 μg/ml Rnase Dnase-free) were added, and after an incubation time of 1 h at 37° C., a second incubation at 56° C. with proteinase K at 100 μg/ml final concentration was performed over night. Proteins were removed by phenol-chloroform extraction. The genomic DNA was then precipitated with 0.2 vol. of 10M ammonium acetate and 2 vol. ethanol, and centrifuged at 13000 rpm for 5 min. The DNA pellet was washed with 70% ethanol, air dried and resuspended in nuclease free water at 4° C. on rocking table. The concentration was measured at 260 nm. […]
20 μg of genomic DNA (or in vitro methylated DNA) were mixed with 5.5 μl of 3M NaOH, the volume was adjusted to 55.5 μl with filtered water. […] The PCR product (10 μl+5 μl loading dye) was analyzed on 1.5% agarose gel.

p16INK4a promoter = experiment: Methylation specific PCR for the p16 gene; assay type: cell-based; conditions: 24 hrs
Description: as §1
DNA extraction was performed as described below. Bisulfite treatment and PCR for the determination of p16 methylation was performed as described from the suppliers (Chemicon).

HDAC4 = HDAC4 (Homo sapiens, UniProt P56524); experiment: HDAC4 enzymatic assay (IP-HDAC4, 3H-acetyl release); assay type: biochemical; conditions: IP-HDAC4 incubated with inhibitor 24 hrs
Sequence of HDAC4 (P56524 whole entry, species assumed): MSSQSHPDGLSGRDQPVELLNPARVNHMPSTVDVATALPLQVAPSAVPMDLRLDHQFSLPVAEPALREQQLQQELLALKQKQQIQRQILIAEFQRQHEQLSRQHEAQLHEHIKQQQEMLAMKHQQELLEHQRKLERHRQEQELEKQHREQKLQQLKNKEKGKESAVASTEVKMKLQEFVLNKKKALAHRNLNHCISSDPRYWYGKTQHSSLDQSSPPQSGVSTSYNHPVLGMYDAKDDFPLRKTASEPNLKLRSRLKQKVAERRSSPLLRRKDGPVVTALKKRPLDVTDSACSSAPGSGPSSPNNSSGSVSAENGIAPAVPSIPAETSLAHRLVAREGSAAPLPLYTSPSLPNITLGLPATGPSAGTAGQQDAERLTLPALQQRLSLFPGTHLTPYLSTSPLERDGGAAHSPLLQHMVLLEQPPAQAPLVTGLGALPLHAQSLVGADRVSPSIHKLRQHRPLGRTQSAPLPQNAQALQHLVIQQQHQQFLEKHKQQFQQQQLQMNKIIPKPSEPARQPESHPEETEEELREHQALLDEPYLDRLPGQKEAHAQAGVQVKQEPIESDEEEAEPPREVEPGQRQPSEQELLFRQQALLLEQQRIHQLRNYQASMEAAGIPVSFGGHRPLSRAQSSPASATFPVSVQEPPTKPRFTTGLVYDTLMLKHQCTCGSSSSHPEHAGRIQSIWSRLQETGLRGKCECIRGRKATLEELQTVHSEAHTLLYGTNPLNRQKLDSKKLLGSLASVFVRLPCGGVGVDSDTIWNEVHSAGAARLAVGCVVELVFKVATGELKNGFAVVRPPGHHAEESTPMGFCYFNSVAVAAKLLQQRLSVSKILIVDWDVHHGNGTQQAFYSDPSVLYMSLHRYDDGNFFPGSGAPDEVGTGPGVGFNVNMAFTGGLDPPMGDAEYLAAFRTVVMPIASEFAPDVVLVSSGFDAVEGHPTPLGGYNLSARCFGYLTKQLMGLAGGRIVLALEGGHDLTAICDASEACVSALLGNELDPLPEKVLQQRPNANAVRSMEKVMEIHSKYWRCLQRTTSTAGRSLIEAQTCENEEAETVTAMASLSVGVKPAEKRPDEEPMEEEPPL
Sequence of HDAC4 (O15379 whole entry partner, species assumed): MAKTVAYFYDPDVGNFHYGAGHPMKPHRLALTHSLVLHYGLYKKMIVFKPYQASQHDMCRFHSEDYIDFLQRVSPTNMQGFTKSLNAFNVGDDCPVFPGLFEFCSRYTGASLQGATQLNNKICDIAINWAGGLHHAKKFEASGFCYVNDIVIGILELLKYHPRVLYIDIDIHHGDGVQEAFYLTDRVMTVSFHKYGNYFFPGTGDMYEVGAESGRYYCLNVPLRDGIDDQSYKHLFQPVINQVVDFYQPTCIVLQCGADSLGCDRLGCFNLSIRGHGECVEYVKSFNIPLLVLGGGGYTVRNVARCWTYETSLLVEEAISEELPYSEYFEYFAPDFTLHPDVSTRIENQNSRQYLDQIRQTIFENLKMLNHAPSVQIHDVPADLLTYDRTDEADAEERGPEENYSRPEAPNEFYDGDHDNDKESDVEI
Description: (§2) FIG. 1: a) Cell cycle analysis of U937 cells treated for 30 hrs with the indicated compounds used at 1 and 5 μM; b) Caspase 3 apoptotic assay of the indicated compounds after 24 hrs of treatment in the U937 cells; c) Tubulin acetylation and p21 expression levels at 6 and 16 hrs after treatment with the indicated compounds; total tubulin expression levels are used for equal loading; d) Histone H3 acetylation and K9 H3 methylation expression levels at 6 and 16 hrs after treatment with the indicated compounds; total tubulin expression levels are used for equal loading; e) K9, K14, K18 histone H3 acetylation expression levels at 6 and 16 hrs after treatment with the indicated compounds; total ERKs expression levels are used for equal loading; f) HDAC1 enzymatic assay: IP-HDAC1 is incubated with the indicated inhibitors for 24 Hrs; activity is measured as ^3H-acetyl release; g) HDAC4 enzymatic assay: IP-HDAC4 is incubated with the indicated inhibitors for 24 hrs; activity is measured as ^3H-acetyl release.

p21WAF1/CIP1 = experiment: p21 expression, Western blot in U937 cells; assay type: cell-based, human; conditions: U937, 6 and 16 hrs
Description: as §2
FIG. 3: a) Cell cycle and apoptosis analysis carried out in U937 cells after 24 hrs with the indicated compounds; values are media of independent triplicates; b) CD11c expression analysis carried out in U937 cells with the indicated compounds; values are media of independent duplicates; c) Tubuline acetylation and p21 expression levels in U937 cells after 24 hrs with the indicated treatments; total ERKs expression levels are used for equal loading; d) acetylation of histone H3 under the conditions indicated in (c).
For the determination of p21^WAF1/CIP1 and p16^INK4 100 μg of total protein extracts were separated on a 15% polyacrylammide gels and blotted. Western blots were shown for p21 (Transduction Laboratories, dilution 1:500), p16 (Santa Cruz) and total ERKs (Santa Cruz) were used to normalise for equal loading. For alpha-tubulin acetylation 25 μg of total protein extracts were separated on a 10% polyacrylamide gels and blotted. […]

histone H3 = experiment: Histone H3 acetylation and K9 H3 methylation levels in U937 cells; assay type: cell-based, human; conditions: U937, 6 and 16 hrs
Description: as §2
For the determination of p21^WAF1/CIP1 and p16^INK4 100 μg of total protein extracts were separated on a 15% polyacrylammide gels and blotted. Western blots were shown for p21 (Transduction Laboratories, dilution 1:500), p16 (Santa Cruz) and total ERKs (Santa Cruz) were used to normalise for equal loading. For alpha-tubulin acetylation 25 μg of total protein extracts were separated on a 10% polyacrylamide gels and blotted. Western blots were shown for acetylated alpha-tubulin (Sigma, dilution 1:500) and total ERKs (Santa Cruz) or total tubulin (Sigma) were used to normalise for equal loading.

O=C(NCCSSCCNC(=O)C(Cc1c[nH]c2ccc(Br)cc12)=NO)C(Cc1c[nH]c2ccc(Br)cc12)=NO [UVI5008]
unmethylated RARβ2 (MSP) (RARβ2 promoter): significant increase | unmethylated p16INK4a promoter DNA (MSP) (p16INK4a promoter): increased | HDAC4 deacetylase activity inhibition (HDAC4): nearly completely blocked | expression of p21WAF1/CIP1 (p21WAF1/CIP1): dramatically increased | H3K9, H3K14 and H3K18 acetylations (histone H3): all increased | global histone H3 acetylation (histone H3): dramatically enhanced | methylation of H3K9 (histone H3): decreased
